Test results taken from PubChem BioAssay (NCI).
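In this assay, cells in 96-well plates receive the compound at five concentrations for 48 hours. Endpoints are linearly interpolated between the surrounding concentrations. TGI denotes the concentration required for complete inhibition of growth.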

Key:
Test in all cases: inhibition of tumour cell growth, NCI panel, 48 h
UACC-257 melanoma = tested on: UACC-257 melanoma
OVCAR-5 ovarian = tested on: OVCAR-5 ovarian
ACHN renal = tested on: ACHN renal
SK-MEL-28 melanoma = tested on: SK-MEL-28 melanoma
PC-3 prostate = tested on: PC-3 prostate
HCT-116 colon = tested on: HCT-116 colon
TK-10 renal = tested on: TK-10 renal
OVCAR-4 ovarian = tested on: OVCAR-4 ovarian
A549 NSCLC = tested on: A549 NSCLC
MDA-N = tested on: MDA-N
UACC-62 melanoma = tested on: UACC-62 melanoma
HOP-62 NSCLC = tested on: HOP-62 NSCLC
NCI-H522 lung = tested on: NCI-H522 lung
T-47D breast = tested on: T-47D breast
SNB-75 CNS = tested on: SNB-75 CNS
CCRF-CEM leukemia = tested on: CCRF-CEM leukemia
NCI/ADR-RES ovarian = tested on: NCI/ADR-RES ovarian
IGROV1 ovarian = tested on: IGROV1 ovarian
EKVX NSCLC = tested on: EKVX NSCLC
UO-31 renal = tested on: UO-31 renal

| Compound | TGI (UACC-257 melanoma) [µM] | TGI (OVCAR-5 ovarian) [µM] | TGI (ACHN renal) [µM] | TGI (SK-MEL-28 melanoma) [µM] | TGI (PC-3 prostate) [µM] | TGI (HCT-116 colon) [µM] | TGI (TK-10 renal) [µM] | TGI (OVCAR-4 ovarian) [µM] | TGI (A549 NSCLC) [µM] | TGI (MDA-N) [µM] | TGI (UACC-62 melanoma) [µM] | TGI (HOP-62 NSCLC) [µM] | TGI (NCI-H522 lung) [µM] | TGI (T-47D breast) [µM] | TGI (SNB-75 CNS) [µM] | TGI (CCRF-CEM leukemia) [µM] | TGI (NCI/ADR-RES ovarian) [µM] | TGI (IGROV1 ovarian) [µM] | TGI (EKVX NSCLC) [µM] | TGI (UO-31 renal) [µM] |
| --- | --- | --- | --- | --- | --- | --- | --- | --- | --- | --- | --- | --- | --- | --- | --- | --- | --- | --- | --- | --- |
| CCOC(=O)c1c(N2CCOCC2)ncn(-c2cccc(Cl)c2)c1=O | > 100 | > 100 | > 100 | > 100 | > 100 | > 100 | > 100 | > 100 | > 100 | > 100 | > 100 | > 100 | > 100 | > 100 | > 100 | > 100 | > 100 | > 100 | > 100 | – |
| c1ccc(C2=NN=C3C(c4ccccc4)=Nc4ccccc4N3C2)cc1 | 32.4 | > 94.3 | > 100 | > 100 | > 100 | > 95.6 | 43.4 | 42 | > 100 | > 100 | > 100 | > 100 | 22.8 | > 100 | – | 20.2 | > 100 | > 100 | > 68.6 | > 59.4 |
| C[C@H](c1ccccc1)n1c(N)c(-c2nc3ccccc3s2)c2ccc([N+](=O)[O-])cc2c1=O | 76.9 | > 100 | 65.7 | > 100 | > 65.7 | 10.9 | > 100 | > 100 | > 100 | > 80.4 | > 100 | 56.9 | > 19.7 | 17.6 | > 91.7 | – | 22 | 98.9 | > 100 | 18.4 |
| CC(=Nc1cccc(Cl)c1)c1ccncc1 | – | > 100 | > 100 | > 100 | > 100 | > 100 | > 100 | > 100 | > 100 | > 100 | > 100 | > 100 | > 100 | > 100 | > 100 | > 100 | > 100 | > 100 | > 100 | > 100 |
| O=c1[nH]c2ccc(Cl)cc2o1 | > 100 | > 100 | > 100 | – | > 100 | > 100 | > 100 | > 100 | > 100 | > 100 | > 100 | > 100 | > 100 | > 100 | > 100 | > 100 | > 100 | > 100 | > 100 | > 100 |
| Cc1ccc2c(c1)C=CC1(O2)N(c2ccccc2)C(=S)OC1(C)C (stereo not drawn) | > 100 | > 100 | > 100 | > 100 | > 100 | > 100 | > 100 | > 100 | > 100 | 94.3 | > 100 | > 100 | – | 20.7 | > 100 | > 100 | > 100 | > 100 | > 100 | > 100 |
| C1=Nc2ccc(cc2)-c2ccc(cc2)N=Cc2ccc(cc2)OCc2cccc(n2)COc2ccc1cc2 | > 100 | > 100 | > 100 | > 100 | > 100 | > 100 | – | > 100 | > 100 | > 100 | > 100 | > 100 | > 100 | > 100 | > 100 | > 100 | > 100 | > 100 | > 100 | > 100 |
| O=CC(O)C(O)C1OC(=O)c2cc(O)c(O)c(O)c2C2=C(O)C(O)=C3OC(=O)c4c(c(O)c(O)c5c4C3C2C(=O)O5)-c2c(cc(O)c(O)c2O)C(=O)OCC1O (stereo not drawn) | > 100 | > 100 | > 100 | > 100 | > 100 | 29 | – | 51.5 | > 100 | 41.1 | > 100 | > 100 | 86.4 | > 100 | > 100 | > 100 | > 100 | > 100 | > 100 | > 100 |
| COC(=O)c1sc2c(c1C(=O)OC)C(=NC(C)(C)C)SC2=NC(C)(C)C | 32.6 | 37.2 | 33.1 | 32 | 37 | 30.5 | 33.2 | 44 | 41.8 | 34 | 33.2 | 39 | 37.5 | 31.4 | – | 33.5 | 42.7 | 36.2 | 34.7 | 2.43 |
| Nc1n[nH]c2c(C(=O)Nc3ccc(Cl)cc3)c(N)n(N)c(=O)c12 | > 100 | > 100 | – | > 100 | > 100 | > 100 | > 100 | > 100 | > 100 | > 100 | > 100 | – | > 100 | > 100 | > 100 | > 100 | > 100 | > 100 | > 100 | > 100 |
| COc1cccc(/C=C2\SC(=S)N(/C=C3\C(=O)Oc4ccccc4C3=O)C2=O)c1O | > 100 | > 100 | > 100 | > 100 | > 100 | > 100 | – | > 100 | > 100 | > 100 | > 100 | > 100 | > 100 | > 100 | > 100 | > 100 | > 100 | > 100 | > 100 | 48.2 |
| COC(=O)[C@]12C3=C(O)C(=O)C[C@H]1OC[C@H]2C=CC3 | > 100 | > 100 | > 100 | > 100 | > 100 | – | > 100 | > 100 | > 100 | > 100 | > 100 | > 100 | 46.8 | > 100 | > 100 | – | > 100 | > 100 | > 100 | > 100 |
| COc1ccc(C(OCC2OC3(COC(c4ccccc4)(c4ccc(OC)cc4)c4ccc(OC)cc4)C(Oc4nc(=O)ccn43)C2O)(c2ccccc2)c2ccc(OC)cc2)cc1 (stereo not drawn) | > 100 | > 100 | > 100 | > 100 | > 100 | > 100 | > 100 | > 100 | > 100 | > 100 | > 100 | > 100 | > 100 | > 100 | – | > 100 | > 100 | > 100 | > 100 | > 100 |
| O=c1oc2ccccc2c(O)c1C(c1cccc(C(c2c(O)c3ccccc3oc2=O)c2c(O)c3ccccc3oc2=O)c1)c1c(O)c2ccccc2oc1=O | > 100 | > 100 | > 100 | > 100 | > 100 | > 100 | > 100 | – | > 100 | > 100 | 95.7 | > 100 | 35.6 | > 100 | 41.6 | 69.3 | > 100 | > 100 | > 100 | – |
| CC(=O)N1C(CCc2ccccc2)CC(C)(C=O)C1Cc1ccc(O[Si](C(C)C)(C(C)C)C(C)C)cc1 (stereo not drawn) | 10.6 | 28.8 | 18.8 | 18.7 | 12.8 | 9.03 | 13.7 | 16.8 | 15.2 | 6.4 | 16.3 | 25.9 | 5.95 | 12.9 | 18.4 | – | 31.1 | 19.1 | 15.8 | 14.3 |
| CC(=O)NC1CC(C(C)(C)NC(C)=O)CC=C1C (stereo not drawn) | > 100 | > 100 | – | > 100 | > 100 | > 100 | > 100 | > 100 | > 100 | > 100 | > 100 | > 100 | > 100 | > 100 | > 100 | > 100 | > 100 | > 100 | > 100 | > 100 |
| COc1cc2c(c(OC)c1OC)C(=O)[C@@H](O)[C@H]2NC(N)=O | > 100 | > 100 | > 100 | > 100 | > 100 | > 100 | > 100 | – | > 100 | > 100 | > 100 | > 100 | > 100 | > 100 | > 100 | > 100 | > 100 | > 100 | > 100 | > 100 |
| C=CCSC1=N/C(=C\c2ccc(OC)cc2)C(=O)N1CC=C | 58.4 | > 100 | > 100 | > 100 | 80.1 | > 100 | > 100 | > 100 | > 100 | 59.8 | > 100 | > 100 | > 100 | > 100 | – | 78 | > 100 | > 100 | 59.2 | > 100 |
| O=C(O/N=c1/ccc(=O)/c(=N\OC(=O)c2ccccc2)c1=O)c1ccccc1 | – | > 100 | > 100 | > 100 | > 100 | > 100 | > 100 | > 100 | > 100 | > 100 | – | > 100 | > 100 | > 100 | > 100 | 89.7 | > 100 | > 100 | > 100 | > 100 |
| CSc1ncc2c(C#N)c3[nH]c4ccccc4n3c(=O)c2n1 | > 100 | > 100 | > 100 | – | 48.7 | 57.5 | > 100 | > 100 | – | > 100 | 21.2 | > 100 | > 100 | > 100 | > 100 | 27.8 | 99.3 | > 100 | > 100 | > 100 |
| COc1ccc(/C=C2\Sc3nnc(-c4ccccc4)n3N=C2c2cc(F)c(Cl)cc2Cl)cc1OC | > 100 | > 100 | > 100 | > 100 | > 100 | > 100 | > 100 | > 100 | – | > 100 | – | > 100 | 38.3 | > 100 | – | > 100 | > 100 | > 100 | > 100 | > 100 |
| CCOC(=O)CC(=O)Nc1cccc2sc3ncccc3c(=O)c12 | > 100 | > 100 | > 100 | > 100 | > 100 | > 100 | > 100 | > 100 | > 100 | > 100 | > 100 | > 100 | > 100 | > 100 | > 100 | > 100 | > 100 | – | > 100 | > 100 |
| C[C@@H](NC(=O)Cn1c(Cl)nc2ccccc21)c1ccccc1 | > 100 | > 100 | > 100 | > 100 | > 100 | > 100 | > 100 | > 100 | > 100 | > 100 | > 100 | > 100 | > 100 | > 100 | > 100 | > 100 | > 100 | – | > 100 | > 100 |
| COC1(OC)N=C(N)C2(C#N)C(C)=C3NCN(C)N=C3C12C#N (stereo not drawn) | > 100 | > 100 | > 100 | > 100 | > 100 | > 100 | > 100 | – | > 100 | > 100 | > 100 | > 100 | > 100 | > 100 | > 100 | – | > 100 | > 100 | > 100 | > 100 |
